# Measurements from patent publication US20250296953A1, “3,4-THIAZOLO-STEROIDS AND METHODS OF MAKING AND USING THE SAME” (Arkansas State University - Jonesboro, priority 2018, published 2025).
# Like-named read-outs stand apart in the source and are kept apart here.
# Legend:
# [1] = test system: 60 different human tumor cell lines; test: cells
# SR = test: NCI 60 five dose screen
# [2] = test system: 60 different human tumor cell lines; test: NCI Development Therapeutics Program 60 cell line screen, one dose; format: cell-based
# RPMI-8226 = test: NCI 60 five dose screen
# SF-539 = test: NCI 60 one dose screen; format: cell-based, human; details: one dose; CNS Cancer; SF-539
# NCI-H522 (NSCLC) = test: NCI 60 one dose screen; format: cell-based, human; details: Non-small Cell Lung Cancer
smiles,measurement,setting,value
"C[C@]12CC[C@H]3[C@@H](CC=C4c5sc(Nc6ccccc6)nc5CC[C@@]43C)[C@@H]1CC[C@@H]2O [IIIa.10, (1S,2R,13R,14S,17S,18S)-7-anilino-2,18-dimethyl-8-thia-6-azapentacyclo[11.7.0.02,10.05,9.014,18]icosa-5(9),6,10-trien-17-ol]",CC50,"[1]; SK-MEL-2, read-out: LC50",22.2 µM
same,GI50,[1]; SK-MEL-5,1.82 µM
same,CC50,"[1]; SK-MEL-5, read-out: LC50",6.4 µM
same,GI50,[1]; SK-MEL-28,1.68 µM
same,CC50,"[1]; SK-MEL-28, read-out: LC50",9.49 µM
same,GI50,[1]; SK-OV-3,5.16 µM
same,CC50,"[1]; SK-OV-3, read-out: LC50",51.2 µM
same,GI50,[1]; SN12C,1.65 µM
same,CC50,"[1]; SN12C, read-out: LC50",6.53 µM
same,GI50,[1]; SNB-19,1.86 µM
same,CC50,"[1]; SNB-19, read-out: LC50",7.65 µM
same,GI50,[1]; SNB-75,1.49 µM
same,CC50,"[1]; SNB-75, read-out: LC50",6.24 µM
same,GI50,[1]; SW-620,2.27 µM
same,CC50,"[1]; SW-620, read-out: LC50",23.2 µM
same,GI50,[1]; T47D,2.41 µM
same,CC50,"[1]; T47D, read-out: LC50",> 100 µM
same,GI50,[1]; TK-10,2.91 µM
same,CC50,"[1]; TK-10, read-out: LC50",23 µM
same,GI50,[1]; U-251,1.36 µM
same,CC50,"[1]; U-251, read-out: LC50",5.7 µM
same,GI50,[1]; UACC-62,1.83 µM
same,CC50,"[1]; UACC-62, read-out: LC50",8.55 µM
same,GI50,[1]; UACC-257,2.54 µM
same,CC50,"[1]; UACC-257, read-out: LC50",30.5 µM
same,GI50,[1]; UO-31,1.67 µM
same,CC50,"[1]; UO-31, read-out: LC50",5.56 µM
same,GI50,"SR; Homo sapiens, SR",0.241 µM
same,CC50,"SR; Homo sapiens, SR, read-out: LC50",> 100 µM
same,TGI,"SR; SR (Leukemia), five dose",6.10E−6
same,Growth Percent,"[2]; Breast Cancer, BT-549",19.16%
same,Growth Percent,"[2]; Breast Cancer, HS 578T",3.65%
same,Growth Percent,"[2]; Breast Cancer, MCF7",29.18%
same,Growth Percent,"[2]; Breast Cancer, MDA-MB-231/ATCC",35.75%
same,Growth Percent,"[2]; Breast Cancer, MDA-MB-468",−1.00%
same,Growth Percent,"[2]; Breast Cancer, T-47D",16.35%
same,Growth Percent,"[2]; CNS Cancer, SF-268",9.68%
same,Growth Percent,"[2]; CNS Cancer, SNB-19",26.54%
same,Growth Percent,"[2]; CNS Cancer, SNB-75",−5.43%
same,Growth Percent,"[2]; CNS Cancer, U251",−30.05%
same,Growth Percent,"[2]; Colon Cancer, COLO 205",57.13%
same,Growth Percent,"[2]; Colon Cancer, HCC-2998",98.16%
same,Growth Percent,"[2]; Colon Cancer, HCT-116",−81.48%
same,Growth Percent,"[2]; Colon Cancer, HT29",−38.50%
same,Growth Percent,"[2]; Colon Cancer, KM12",15.64%
same,Growth Percent,"[2]; Colon Cancer, SW-620",−19.44%
same,Growth Percent,"[2]; Leukemia, CCRF-CEM",0.74%
same,Growth Percent,"[2]; Leukemia, HL-60(TB)",15.69%
same,Growth Percent,"[2]; Leukemia, K-562",4.96%
same,Growth Percent,"[2]; Leukemia, MOLT-4",6.79%
same,Growth Percent,"[2]; Leukemia, RPMI-8226",−32.33%
same,Growth Percent,"[2]; Leukemia, SR",8.06%
same,Growth Percent,"[2]; Melanoma, LOX IMVI",−81.48%
same,Growth Percent,"[2]; Melanoma, M14",53.44%
same,Growth Percent,"[2]; Melanoma, MALME-3M",71.16%
same,Growth Percent,"[2]; Melanoma, MDA-MB-435",3.47%
same,Growth Percent,"[2]; Melanoma, SK-MEL-2",51.68%
same,Growth Percent,"[2]; Melanoma, SK-MEL-5",34.54%
same,Growth Percent,"[2]; Melanoma, SK-MEL-28",27.28%
same,Growth Percent,"[2]; Melanoma, UACC-62",39.84%
same,Growth Percent,"[2]; Melanoma, UACC-257",69.33%
same,Growth Percent,"[2]; Non-small Cell Lung Cancer, A549/ATCC",57.08%
same,Growth Percent,"[2]; Non-small Cell Lung Cancer, EKVX",73.21%
same,Growth Percent,"[2]; Non-small Cell Lung Cancer, HOP-62",34.18%
same,Growth Percent,"[2]; Non-small Cell Lung Cancer, HOP-92",103.92%
same,Growth Percent,"[2]; Non-small Cell Lung Cancer, NCI-H23",67.34%
same,Growth Percent,"[2]; Non-small Cell Lung Cancer, NCI-H226",63.92%
same,Growth Percent,"[2]; Non-small Cell Lung Cancer, NCI-H322M",78.38%
same,Growth Percent,"[2]; Non-small Cell Lung Cancer, NCI-H460",6.06%
same,Growth Percent,"[2]; Ovarian Cancer, IGROV1",11.15%
same,Growth Percent,"[2]; Ovarian Cancer, NCI/ADR-RES",36.29%
same,Growth Percent,"[2]; Ovarian Cancer, OVCAR-3",−31.62%
same,Growth Percent,"[2]; Ovarian Cancer, OVCAR-4",64.10%
same,Growth Percent,"[2]; Ovarian Cancer, OVCAR-5",92.21%
same,Growth Percent,"[2]; Ovarian Cancer, OVCAR-8",−8.95%
same,Growth Percent,"[2]; Ovarian Cancer, SK-OV-3",89.65%
same,Growth Percent,"[2]; Prostate Cancer, DU-145",14.25%
same,Growth Percent,"[2]; Prostate Cancer, PC-3",39.21%
same,Growth Percent,"[2]; Renal Cancer, 786-0",−49.68%
same,Growth Percent,"[2]; Renal Cancer, ACHN",36.78%
same,Growth Percent,"[2]; Renal Cancer, CAKI-1",49.02%
same,Growth Percent,"[2]; Renal Cancer, RXF 393",−32.33%
same,Growth Percent,"[2]; Renal Cancer, SN12C",10.11%
same,Growth Percent,"[2]; Renal Cancer, TK-10",65.01%
same,Growth Percent,"[2]; Renal Cancer, UO-31",26.06%
same,GI50,"RPMI-8226; Homo sapiens, RPMI-8226",0.465 µM
same,CC50,"RPMI-8226; Homo sapiens, RPMI-8226, read-out: LC50",> 100 µM
same,TGI,"RPMI-8226; RPMI-8226 (Leukemia), five dose",2.47E−6
same,Growth Percent,SF-539,−34.31%
same,Growth Percent,NCI-H522 (NSCLC),25.77%
